The values below come from patent publication US9663511B2, “Sphingosine 1-phosphate receptor antagonists” (ARROYO BIOSCIENCES, LLC, priority 2012, dated 2017).

Molecules are shown by their SMILES. pIC50: −log10 of the molar value.

In series [1] the target is S1P2 receptor (Homo sapiens (Human), UniProt O95136). The series can be described thus: Antagonist assay (FLIPR TETRA, inhibition of reference agonist EC80) on S1P2. It is filed as cell-based. The settings on record: tested as the citrate salt. The procedure: (§1) Antagonist percentage inhibition determinations were obtained by assaying sample compounds and referencing the control (EC80) wells for each profiled (GPCR) which evaluated binding to S1P2 and S1P5 receptors. The samples were run using a single addition assay protocol. The protocol design is as follows.
(§2) Unless specified otherwise, the sample compounds were diluted in 100% anhydrous DMSO including all dilutions. The compounds were tested as the citrate salt (1 equivalent per molecule). If the sample compound is provided in a different solvent all master stock dilutions are performed in the specified solvent. All control wells contained identical solvent final concentrations as the sample compound wells.
(§3) The sample compounds were transferred from a master stock solution into a daughter plate that was used in the assay. Each sample compound was diluted into an assay buffer (1×HBSS with 20 mM HEPES, 2.5 mM Probenecid, and 0.4% Free Fatty Acid BSA) at an appropriate concentration to obtain final specified concentrations.
(§4) Using the EC80 values that were determined real-time, stimulated all pre-incubated sample compounds and reference antagonists (if applicable) were compared with the EC80 values of reference agonist. These were read for 180 seconds using the FLIPR^TETRA (This assay added reference agonist to respective wells-then fluorescences measurements were collected to calculate IC50 values). All plates were subjected to appropriate baseline corrections. Once baseline corrections were processed, maximum fluorescence values were exported and data manipulated to calculate percentage activation, percentage inhibition and Z′.

The nature of series [2]: Microsomal intrinsic clearance. The settings on record: for microsomal CLint at 1 μM / half-life at 1 μM: mouse, liver microsomes, mouse microsomes, test conc. 1 μM. (In general: Liver microsomes are vesicles of endoplasmic reticulum, rich in cytochrome P450 enzymes.)
The target of series [3] is S1P5 receptor (Homo sapiens (Human), UniProt Q9H228). The series can be described thus: Antagonist assay (FLIPR TETRA, inhibition of reference agonist EC80) on S1P5. It counts as cell-based. The settings on record: tested as the citrate salt. Here is the method: as §1, §2, §3, §4
Series [4] in a line: In vitro plasma protein binding. It is filed as in vitro ADME, mouse. The settings on record: for mean fraction bound (%): mouse plasma, test concentration 5 nM.

Sequence of S1P2 receptor (O95136 whole entry): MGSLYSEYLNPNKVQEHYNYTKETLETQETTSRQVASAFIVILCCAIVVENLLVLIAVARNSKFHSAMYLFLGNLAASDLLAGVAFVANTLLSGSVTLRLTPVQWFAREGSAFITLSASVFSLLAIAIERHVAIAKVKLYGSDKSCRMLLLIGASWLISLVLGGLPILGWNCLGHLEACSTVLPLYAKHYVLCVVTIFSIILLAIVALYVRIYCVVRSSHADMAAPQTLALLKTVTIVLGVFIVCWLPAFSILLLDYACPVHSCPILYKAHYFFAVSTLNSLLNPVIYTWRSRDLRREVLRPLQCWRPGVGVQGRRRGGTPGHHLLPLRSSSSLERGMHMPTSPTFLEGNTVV
Sequence of S1P5 receptor (Q9H228 whole entry): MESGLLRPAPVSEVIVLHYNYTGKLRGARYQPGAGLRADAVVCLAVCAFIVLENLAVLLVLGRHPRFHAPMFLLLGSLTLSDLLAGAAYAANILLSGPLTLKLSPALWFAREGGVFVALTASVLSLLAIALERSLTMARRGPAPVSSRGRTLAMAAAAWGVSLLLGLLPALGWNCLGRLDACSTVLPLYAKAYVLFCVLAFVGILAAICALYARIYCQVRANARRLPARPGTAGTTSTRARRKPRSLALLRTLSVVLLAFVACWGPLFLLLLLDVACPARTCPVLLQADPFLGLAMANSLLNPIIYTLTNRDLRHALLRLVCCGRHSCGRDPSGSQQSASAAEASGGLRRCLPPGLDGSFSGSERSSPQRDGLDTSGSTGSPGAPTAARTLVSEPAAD

For `Cc1nn(C)c2nc(N(CC(=O)O)NC(=O)Nc3cc(Cl)nc(Cl)c3)cc(C(C)C)c12` [Compound 2], the pIC50 in series [1] is 7.96; in series [3] it was 8.49. In addition, the “stability in liver microsomes (in words)” value in series [2] (compared with JTE013) is given as “much more stable in liver microsomes”. Besides, the microsomal CLint at 1 μM was found to be 20 µL/min/mg in series [2] (NADPH-dependent Clint (microsomal intrinsic clearance)) and 9 µL/min/mg in series [2] (NADPH-free Clint (microsomal intrinsic clearance)). For the same compound, the results for the half-life at 1 μM in series [2] (NADPH-dependent T1/2 (half-life)) and in series [2] (NADPH-free T1/2 (half-life)) were 1.88 h and > 3 h, respectively. The “plasma protein binding (in words)” value in series [4] (compared with JTE013 and compound 1) was “lower plasma protein binding”. For the same compound, in series [4], the “mean fraction bound (%)” value came out at 77.0%.

As to `C=CCn1nc(C)c2c(C(C)C)cc(N(CC(=O)O)NC(=O)Nc3cc(Cl)nc(Cl)c3)nc21` [Compound 3], the negative-log IC50 (pIC50) in series [1] was 5.52; in series [3] it was 5.24.

With `C=CCn1nc(C)c2c(C(F)(F)F)cc(NNC(=O)Nc3cc(Cl)nc(Cl)c3)nc21` [Compound 5], the pIC50 in series [1] and in series [3] was < 5.00 each time.

With `C=CCn1nc(C)c2c(C(C)C)cc(ONC(=O)Nc3cc(Cl)nc(Cl)c3)nc21` [Compound 6], the negative logarithm of the IC50 (pIC50) in series [1] was 7.28; in series [3], 8.06.

On to `Cc1nn(C)c2nc(N(CCO)NC(=O)Nc3cc(Cl)nc(Cl)c3)cc(C(C)C)c12` [Compound 9, N-(2,6-Dichloropyridin-4-yl)-2-(2-hydroxyethyl)-2-(4-isopropyl-1,3-dimethyl-1H-pyrazolo[3,4-b]pyridin-6-yl)hydrazine-1-carboxamide], for which the negative logarithm of the IC50 (pIC50) was 8.15 in series [1] and 7.68 in series [3].

As to `C=CCn1nc(C)c2c(C(C)C)cc(NNC(=O)Nc3cc(Cl)nc(Cl)c3)nc21` [Compound 27], the pIC50 in series [1] was 7.12; in series [3], 6.78.

Regarding `CC(C)c1cc(NNC(=O)Nc2cc(Cl)nc(Cl)c2)nc2c(CCCO)nn(C)c12` [Compound 33], the negative-log IC50 (pIC50) was 8.30 in series [1] and > 8.00 in series [3].

As for `CCOc1cc(NC(=O)NN(CCO)c2cc(C(C)C)c3c(C)nn(C)c3n2)cc(Cl)n1` [Compound 35], the results for the negative logarithm of the IC50 (pIC50) in series [1] and in series [3] were 7.54 and 7.89, respectively.

Turning to `CCCOc1cc(NC(=O)NN(CCO)c2cc(C(C)C)c3c(C)nn(C)c3n2)cc(Cl)n1` [Compound 36], the pIC50 in series [1] is 8.00; in series [3], 7.48.

Consider `COCCOc1cc(NC(=O)NN(CCO)c2cc(C(C)C)c3c(C)nn(C)c3n2)cc(Cl)n1` [Compound 37], for which the values for the pIC50 in series [1] and in series [3] were 6.80 and < 5.00, respectively.

Consider `CCNc1cc(NC(=O)NN(CCO)c2cc(C(C)C)c3c(C)nn(C)c3n2)cc(Cl)n1` [Compound 38], for which the pIC50 was 8.40 in series [1] and 8.34 in series [3].

`CCN(C)c1cc(NC(=O)NN(CCO)c2cc(C(C)C)c3c(C)nn(C)c3n2)cc(Cl)n1` [Compound 39]: the pIC50 in series [1] was 7.72; in series [3], 7.40.

On to `Cc1nn(C)c2nc(N(CCO)NC(=O)Nc3cnc(Cl)c(Cl)c3)cc(C(C)C)c12` [Compound 40], for which the negative-log IC50 (pIC50) is 6.52 in series [1] and < 5.00 in series [3].

With `Cc1nn(C)c2nc(N(CCO)NC(=O)Nc3ccc(Cl)nc3Cl)cc(C(C)C)c12` [Compound 41], the negative-log IC50 (pIC50) in series [1] and in series [3] was < 5.00 in each case.

On to `Cc1nn(C)c2nc(N(CCO)NC(=O)Nc3cc(Cl)c(Cl)s3)cc(C(C)C)c12` [Compound 42], for which the pIC50 in series [1] was 7.19; in series [3], 6.54.

For `Cc1sc(NC(=O)NN(CCO)c2cc(C(C)C)c3c(C)nn(C)c3n2)cc1Cl` [Compound 43], the pIC50 in series [1] is 6.44; in series [3] it was < 5.00.

Turning to `Cc1nn(C)c2nc(N(CCO)NC(=O)Nc3cc(Cl)cc(C(F)(F)F)c3)cc(C(C)C)c12` [Compound 44], the pIC50 in series [1] was < 6.92; in series [3], 7.13.

For `Cc1nn(C)c2nc(N(CCO)NC(=O)Nc3cc(Cl)no3)cc(C(C)C)c12` [Compound 45], the negative logarithm of the IC50 (pIC50) in series [1] and in series [3] was < 5.00 in each case.

For the compound `CC(C)NCC(O)COc1cccc2ccccc12` (centres unmarked) [Propanolol, reference compound], the “mean fraction bound (%)” value in series [4] amounted to 87.4%.

What is called pIC50 is the negative decadic logarithm of the IC50, by convention in mol/L. The microsomal CLint is the capacity of the preparation to metabolise the compound, expressed as a volume cleared per time. Low values mean slow turnover, high ones rapid turnover. The term half-life denotes the time needed for the level to fall by half in the phase considered. Higher therefore signals slow loss.
